Test results taken from PubChem BioAssay AID248 (DTP/NCI, 2004).
Toxic doses and inconclusive results are not listed. Cut-off read from the data, not from the text of the source: active = T/C of 150% or more; inactive = T/C below 125%.

System: L1210 leukemia ip in BDF1 mice, survival T/C
Experiment: NCI In Vivo Anticancer Drug Screen. Data for tumor model L1210 Leukemia (intraperitoneal) in B6D2F1 (BDF1) mice
Conditions: endpoint: mean survival time, higher = longer survival
Method in brief: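 Tumor cells were implanted, animals were treated, and survival was followed. The result divides the treated measurement by the vehicle-control measurement.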

[1] = dose: 25.0 mg/kg/injection, schedule: Q01DX009 (ip), vehicle: saline with Tween-80
[2] = dose: 75.0 mg/kg/injection, schedule: Q01DX001 (ip), vehicle: carboxymethylcellulose (CMC)
[3] = dose: 100.0 mg/kg/injection, schedule: Q04DX003 (ip), vehicle: Klucel (hydroxypropylcellulose) (HPC)
[4] = dose: 150.0 mg/kg/injection, schedule: Q01DX001 (ip), vehicle: carboxymethylcellulose (CMC)
[5] = dose: 200.0 mg/kg/injection, schedule: Q04DX003 (ip), vehicle: Klucel (hydroxypropylcellulose) (HPC)
[6] = dose: 100.0 mg/kg/injection, schedule: Q01DX009 (ip), vehicle: saline
[7] = dose: 100.0 mg/kg/injection, schedule: Q04DX003 (ip), vehicle: saline
[8] = dose: 200.0 mg/kg/injection, schedule: Q01DX009 (ip), vehicle: saline
[9] = dose: 200.0 mg/kg/injection, schedule: Q04DX003 (ip), vehicle: saline
[10] = dose: 400.0 mg/kg/injection, schedule: Q04DX003 (ip), vehicle: saline
[11] = dose: 50.0 mg/kg/injection, schedule: Q04DX003 (ip), vehicle: Klucel (hydroxypropylcellulose) (HPC)
[12] = dose: 400.0 mg/kg/injection, schedule: Q04DX003 (ip), vehicle: Klucel (hydroxypropylcellulose) (HPC)
[13] = dose: 100.0 mg/kg/injection, schedule: Q01DX009 (ip), vehicle: Klucel (hydroxypropylcellulose) (HPC)
[14] = dose: 200.0 mg/kg/injection, schedule: Q01DX009 (ip), vehicle: Klucel (hydroxypropylcellulose) (HPC)
[15] = dose: 400.0 mg/kg/injection, schedule: Q01DX009 (ip), vehicle: Klucel (hydroxypropylcellulose) (HPC)
[16] = dose: 50.0 mg/kg/injection, schedule: Q01DX009 (ip), vehicle: Klucel (hydroxypropylcellulose) (HPC)
[17] = dose: 50.0 mg/kg/injection, schedule: Q04DX003 (ip), vehicle: saline with Tween-80
[18] = dose: 100.0 mg/kg/injection, schedule: Q01DX001 (ip), vehicle: saline
[19] = dose: 100.0 mg/kg/injection, schedule: Q04DX003 (ip), vehicle: saline with Tween-80
[20] = dose: 200.0 mg/kg/injection, schedule: Q01DX001 (ip), vehicle: saline
[21] = dose: 400.0 mg/kg/injection, schedule: Q01DX001 (ip), vehicle: saline

Measured: T/C

Nc1cccc(C(=O)O)c1C(=O)O
inactive: dose: 6.25 mg/kg/injection, schedule: Q01DX009 (ip), vehicle: saline with Tween-80 100 % of control | dose: 12.5 mg/kg/injection, schedule: Q01DX009 (ip), vehicle: saline with Tween-80 96 % of control | [1] 91 % of control | [2] 91 % of control | [3] 100 % of control | [4] 94 % of control | [5] 91 % of control

O=C(O)CNCc1ccc(F)cc1
inactive: [6] 107 % of control | [7] 109 % of control | [8] 108 % of control | [9] 105 % of control | dose: 400.0 mg/kg/injection, schedule: Q01DX009 (ip), vehicle: saline 107 % of control | [10] 102 % of control

CC(C)CC1NC(=O)N(C)C1=O (configuration not stated)
inactive: [2] 95 % of control | [4] 100 % of control | dose: 300.0 mg/kg/injection, schedule: Q01DX001 (ip), vehicle: carboxymethylcellulose (CMC) 100 % of control

COc1cccc(CCCC(=O)O)c1OC
inactive: dose: 100.0 mg/kg/injection, schedule: Q04DX003 (ip), vehicle: gum acacia 99 % of control | dose: 200.0 mg/kg/injection, schedule: Q04DX003 (ip), vehicle: gum acacia 94 % of control | dose: 400.0 mg/kg/injection, schedule: Q04DX003 (ip), vehicle: gum acacia 96 % of control

CCc1nc(C#N)c(N)o1
inactive: dose: 5.0 mg/kg/injection, schedule: Q01DX001 (ip), vehicle: saline 98 % of control | dose: 10.0 mg/kg/injection, schedule: Q01DX001 (ip), vehicle: saline 103 % of control | dose: 20.0 mg/kg/injection, schedule: Q01DX001 (ip), vehicle: saline 97 % of control | dose: 40.0 mg/kg/injection, schedule: Q01DX001 (ip), vehicle: saline 95 % of control | dose: 80.0 mg/kg/injection, schedule: Q01DX001 (ip), vehicle: saline 98 % of control

COc1cc(CNC(=O)CCN2CC2)ccc1O
inactive: [11] 109 % of control | [3] 98 % of control | [5] 95 % of control | [12] 97 % of control

COc1cccc2c1CCC1=C2CC=C2CC3(CCC21C)OCCO3 (configuration not stated)
inactive: dose: 100.0 mg/kg/injection, schedule: Q01DX009 (sc), vehicle: steriod suspending solution 91 % of control | dose: 200.0 mg/kg/injection, schedule: Q01DX009 (sc), vehicle: steriod suspending solution 101 % of control | dose: 400.0 mg/kg/injection, schedule: Q01DX009 (sc), vehicle: steriod suspending solution 106 % of control

ClC1=C(Cl)C2(Cl)C(COc3ccc(Cl)cc3)CC1(Cl)C2(Cl)Cl (configuration not stated)
inactive: dose: 50.0 mg/kg/injection, schedule: Q01DX009 (ip), vehicle: other 91 % of control | [13] 94 % of control | dose: 100.0 mg/kg/injection, schedule: Q04DX003 (ip), vehicle: other 109 % of control | [14] 96 % of control | dose: 200.0 mg/kg/injection, schedule: Q04DX003 (ip), vehicle: other 104 % of control | [15] 96 % of control

O=C1C=CC(=NBr)C=C1
inactive: dose: 12.5 mg/kg/injection, schedule: Q01DX009 (ip), vehicle: Klucel (hydroxypropylcellulose) (HPC) 89 % of control | dose: 25.0 mg/kg/injection, schedule: Q01DX009 (ip), vehicle: Klucel (hydroxypropylcellulose) (HPC) 92 % of control | [16] 89 % of control

CC(C)(CCCl)N(Cc1ccccc1)Cc1ccccc1
inactive: [6] 93 % of control | [7] 99 % of control | [8] 90 % of control | [9] 95 % of control | [10] 89 % of control

CCN(CC)CCOc1cc(C)ccc1C(C)C
inactive: [1] 93 % of control | [16] 102 % of control | dose: 50.0 mg/kg/injection, schedule: Q01DX009 (ip), vehicle: saline with Tween-80 93 % of control | [11] 100 % of control | [17] 100 % of control | [18] 98 % of control | [13] 103 % of control | dose: 100.0 mg/kg/injection, schedule: Q01DX009 (ip), vehicle: saline with Tween-80 113 % of control | [3] 96 % of control | [19] 95 % of control | [20] 113 % of control

Cc1ccc(C)c(Cl)c1
inactive: dose: 50.0 mg/kg/injection, schedule: Q01DX001 (ip), vehicle: saline with Tween-80 95 % of control | [17] 101 % of control | dose: 100.0 mg/kg/injection, schedule: Q01DX001 (ip), vehicle: saline with Tween-80 97 % of control | [19] 100 % of control | dose: 200.0 mg/kg/injection, schedule: Q01DX001 (ip), vehicle: saline with Tween-80 97 % of control | dose: 200.0 mg/kg/injection, schedule: Q04DX003 (ip), vehicle: saline with Tween-80 97 % of control

C#CC(C)(O)CC(C)C (configuration not stated)
inactive: [18] 100 % of control | [20] 100 % of control

CC(=O)Oc1cccc(/C=C2/N=C(C)OC2=O)c1
inactive: dose: 25.0 mg/kg/injection, schedule: Q04DX003 (ip), vehicle: Klucel (hydroxypropylcellulose) (HPC) 108 % of control | [11] 105 % of control | [18] 92 % of control | [3] 97 % of control | [20] 92 % of control | [21] 90 % of control

CCOCc1c(COc2ccc(Cl)cc2)n(C)c2ccccc12
inactive: dose: 100.0 mg/kg/injection, schedule: Q04DX002 (ip), vehicle: saline 98 % of control | dose: 200.0 mg/kg/injection, schedule: Q04DX002 (ip), vehicle: saline 98 % of control | dose: 400.0 mg/kg/injection, schedule: Q04DX002 (ip), vehicle: saline 104 % of control

Cc1c(Cl)c(Cl)c(C)c(Cl)c1Cl
inactive: [13] 86 % of control | [3] 95 % of control | [14] 89 % of control | [5] 101 % of control | [15] 87 % of control | [12] 93 % of control

O=C1CCCN1.O=C1CCCN1.[Br][Co][Br]
inactive: dose: 37.5 mg/kg/injection, schedule: Q01DX009 (ip), vehicle: saline 113 % of control | dose: 50.0 mg/kg/injection, schedule: Q04DX003 (ip), vehicle: saline 107 % of control | dose: 75.0 mg/kg/injection, schedule: Q01DX001 (ip), vehicle: saline 103 % of control | dose: 75.0 mg/kg/injection, schedule: Q01DX009 (ip), vehicle: saline 116 % of control | [7] 109 % of control | dose: 150.0 mg/kg/injection, schedule: Q01DX001 (ip), vehicle: saline 102 % of control | dose: 300.0 mg/kg/injection, schedule: Q01DX001 (ip), vehicle: saline 97 % of control

Cc1ccc2c(c1)-c1[nH]c3ccccc3c1CS2
inactive: dose: 100.0 mg/kg/injection, schedule: Q04DX003 (ip), vehicle: acetone 105 % of control | dose: 200.0 mg/kg/injection, schedule: Q04DX003 (ip), vehicle: acetone 110 % of control

O=c1ccn(Cc2ccccc2)c(=S)[nH]1
inactive: dose: 50.0 mg/kg/injection, schedule: Q01DX001 (ip), vehicle: saline 97 % of control | [18] 94 % of control | [20] 97 % of control | [21] 100 % of control
